Source: EP4813991A1 (iLeadBMS Co., Ltd., priority 2023, dated 2025)
Where two headings read alike, the source gives them in different places.

Assays:
[1] = target: T1, CDK12 (Homo sapiens, UniProt Q9NYV4); assay: Cellular CDK12 inhibitory activity assay (Ser2 phosphorylation of RNA polymerase II subunit B1 CTD in MDA-MB-231 cells); type: cell-based; design: using MDA-MB-231 breast cancer cells; endogenous in cells; host or cells: MDA-MB-231
Procedure: MDA-MB-231 cells were dispensed into a 96-well plate at 100 µL of cell suspension per well using L-15 (Invitrogen) medium containing 10 % FBS, followed by overnight incubation in a cell incubator at 37 °C and 0 % CO2. The next day, each Example compound dissolved in DMSO across 9 concentration ranges and a DMSO control group were treated on the MDA-MB-231 cells at 37 °C and 0 % CO2 for 6 hours. After the compound treatment, the medium in the 96-well plate was removed, and 60 µL of a fixing solution (4.0 % paraformaldehyde in PBS) was added to each well, followed by standing for 20 minutes. After removing the fixing solution and washing with PBS, 60 µL of PBS containing 0.1 % Triton X-100 was dispensed into each well, followed by shaking at room temperature for 15 minutes. After washing with PBS, 100 µL of blocking buffer was added, followed by shaking at room temperature for 1 hour. After removing the blocking buffer, primary antibodies, which are RNA polymerase II subunit B1 phospho-Ser2 (1:500, Cell signaling technology) and RNA polymerase II subunit B1 carboxy-terminal domain (1:200, Cell signaling technology), were added at 60 µL per well and reacted overnight at 4 °C. After adding 150 µL of PBS containing 0.1 % Triton X-100 and washing at least twice by shaking at room temperature for 5 minutes, 60 µL of a secondary antibody was added, followed by shaking at room temperature for 1 hour while blocking light. After adding 150 µL of PBS containing 0.1 % Triton X-100 and washing at least twice by shaking at room temperature for 5 minutes, 150 µL of PBS was added again, followed by washing at least twice by shaking at room temperature for 5 minutes. The plate was scanned using a Li-COR Odyssey machine with the wells filled with PBS. IC50 values were calculated by fitting a dose-response curve using a 4-parameter model of Prism (Graphpad) software.

[2] = test system: MDA-MB-231 breast cancer cells; assay: Proliferation inhibitory activity assay against MDA-MB-231 breast cancer cells; type: cell-based; conditions: Homo sapiens, 72 hours, CellTiter Glo, relative IC50
Procedure: Experiments were performed using the MDA-MB-231 breast cancer cell line to measure the cell proliferation inhibitory ability of each Example compound. MDA-MB-231 cells were dispensed into a 96-well plate at 100 µL of cell suspension per well using L-15 (Invitrogen) medium containing 10 % FBS, followed by incubation in a cell incubator at 37 °C and 0 % CO2. The next day, each Example compound dissolved and diluted in DMSO across 9 concentration ranges and a DMSO control group were treated on the cells for 72 hours. After the compound treatment was completed, 100 µL of CellTiter Glo (Promega) reagent was added to each well of the 96-well plate, followed by shaking for 10 minutes and standing at room temperature for 10 minutes. Luminescence signals were measured after inserting the 96-well plate into an Envision plate reader (PerkinElmer). Relative IC50 values were calculated by fitting a dose-response curve using XLfit (IDBS Ltd) software.
The breast cancer cell proliferation inhibitory activities of the Example compounds measured by the above method were evaluated according to the following criteria, and the results are presented in Table 13.

[3] = target: CDK13 (Homo sapiens, UniProt Q14004); assay: CDK13 kinase inhibitory activity assay (33P-ATP filter binding); type: biochemical
Procedure: (§1) Before initiating the CDK12 and CDK13 kinase reactions, each Example compound was dissolved and diluted in DMSO as a solvent across 9 concentration ranges at room temperature. The diluted solutions were then incubated with a mixture of kinase and substrate (and cofactors, if required) for 20 minutes. Next, radioisotope-labeled ATP (^33P-gamma-ATP) was added to proceed with the kinase reaction at room temperature for 120 minutes. After the reaction was completed, the reaction mixture was transferred to a filter paper that binds the radioisotope-labeled catalytic product (^33P-substrate). Unreacted ^33P-ATP was removed by washing with 0.75 % phosphoric acid, and then the radioactive phosphorylated substrate remaining on the filter paper was measured. Kinase activity data were expressed as a percentage of the kinase activity remaining in the test sample compared to a DMSO control group. The half-maximal inhibitory concentration (IC50) for each kinase was calculated using Prism (Graphpad) software.

[4] = target: T1, CDK12; assay: CDK12 kinase inhibitory activity assay (33P-ATP filter binding); type: biochemical
Procedure: as §1

[5] = MDA-MB-231 cells, 6 hours treatment, read-out: pRpbl CTD S2 IC50
[6] = kinase reaction 120 minutes, 33P-gamma-ATP, read-out: CDK13 IC50
[7] = kinase reaction 120 minutes, 33P-gamma-ATP, read-out: CDK12 IC50

T1 sequence (Q9NYV4 whole entry, species assumed): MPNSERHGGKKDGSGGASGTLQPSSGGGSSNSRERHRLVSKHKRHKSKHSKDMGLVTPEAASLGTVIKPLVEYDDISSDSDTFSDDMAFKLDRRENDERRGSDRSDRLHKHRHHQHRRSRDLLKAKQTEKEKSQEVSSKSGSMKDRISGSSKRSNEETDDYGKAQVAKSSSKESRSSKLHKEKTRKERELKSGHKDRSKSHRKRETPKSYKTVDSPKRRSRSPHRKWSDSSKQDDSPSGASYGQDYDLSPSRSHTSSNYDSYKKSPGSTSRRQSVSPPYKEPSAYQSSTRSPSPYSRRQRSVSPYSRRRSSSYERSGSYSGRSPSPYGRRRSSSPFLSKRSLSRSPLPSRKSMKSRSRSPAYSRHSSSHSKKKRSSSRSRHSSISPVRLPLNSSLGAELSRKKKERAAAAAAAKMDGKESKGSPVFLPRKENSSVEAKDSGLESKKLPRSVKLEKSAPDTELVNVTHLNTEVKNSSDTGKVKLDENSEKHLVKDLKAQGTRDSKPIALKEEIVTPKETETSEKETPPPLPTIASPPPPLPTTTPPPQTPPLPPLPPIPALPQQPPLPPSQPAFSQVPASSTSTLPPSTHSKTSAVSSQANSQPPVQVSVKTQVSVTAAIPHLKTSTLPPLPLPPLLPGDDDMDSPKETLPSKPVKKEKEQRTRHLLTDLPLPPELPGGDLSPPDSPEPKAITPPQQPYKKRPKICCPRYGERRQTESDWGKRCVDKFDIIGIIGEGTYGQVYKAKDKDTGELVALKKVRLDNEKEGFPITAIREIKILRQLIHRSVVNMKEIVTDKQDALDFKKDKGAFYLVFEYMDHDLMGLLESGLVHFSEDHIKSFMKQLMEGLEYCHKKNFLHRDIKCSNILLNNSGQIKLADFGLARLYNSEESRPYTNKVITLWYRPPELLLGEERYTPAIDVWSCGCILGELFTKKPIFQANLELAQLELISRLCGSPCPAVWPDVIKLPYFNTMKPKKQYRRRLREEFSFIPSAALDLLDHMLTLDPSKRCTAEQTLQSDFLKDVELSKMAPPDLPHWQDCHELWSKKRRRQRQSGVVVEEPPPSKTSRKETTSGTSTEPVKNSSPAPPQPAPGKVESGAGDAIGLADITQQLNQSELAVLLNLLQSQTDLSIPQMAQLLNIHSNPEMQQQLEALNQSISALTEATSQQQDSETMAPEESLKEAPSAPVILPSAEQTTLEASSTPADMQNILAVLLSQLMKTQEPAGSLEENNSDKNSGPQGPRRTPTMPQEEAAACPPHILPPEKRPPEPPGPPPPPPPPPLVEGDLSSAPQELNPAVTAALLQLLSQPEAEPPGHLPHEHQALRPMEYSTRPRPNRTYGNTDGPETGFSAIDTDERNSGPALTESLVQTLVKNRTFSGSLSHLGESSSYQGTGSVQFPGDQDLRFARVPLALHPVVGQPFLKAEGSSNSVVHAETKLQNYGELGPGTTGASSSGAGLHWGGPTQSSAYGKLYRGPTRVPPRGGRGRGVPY
T1 sequence (O75909 whole entry partner, species assumed): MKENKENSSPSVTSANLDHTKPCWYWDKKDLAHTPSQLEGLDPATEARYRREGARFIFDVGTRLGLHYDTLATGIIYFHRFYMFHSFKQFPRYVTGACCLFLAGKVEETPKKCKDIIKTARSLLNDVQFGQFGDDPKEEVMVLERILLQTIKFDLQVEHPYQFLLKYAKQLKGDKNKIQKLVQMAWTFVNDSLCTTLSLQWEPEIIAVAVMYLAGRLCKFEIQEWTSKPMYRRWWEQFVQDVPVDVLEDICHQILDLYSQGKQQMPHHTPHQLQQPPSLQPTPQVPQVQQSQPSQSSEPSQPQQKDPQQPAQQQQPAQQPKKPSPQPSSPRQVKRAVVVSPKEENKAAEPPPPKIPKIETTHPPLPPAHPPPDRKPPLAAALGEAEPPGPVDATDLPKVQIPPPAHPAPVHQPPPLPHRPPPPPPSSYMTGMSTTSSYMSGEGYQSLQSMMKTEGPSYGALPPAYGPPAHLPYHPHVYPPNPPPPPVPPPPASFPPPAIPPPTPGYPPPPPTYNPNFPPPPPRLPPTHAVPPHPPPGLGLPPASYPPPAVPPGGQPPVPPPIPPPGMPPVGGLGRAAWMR
Sequence of CDK13 (Q14004 whole entry, species assumed): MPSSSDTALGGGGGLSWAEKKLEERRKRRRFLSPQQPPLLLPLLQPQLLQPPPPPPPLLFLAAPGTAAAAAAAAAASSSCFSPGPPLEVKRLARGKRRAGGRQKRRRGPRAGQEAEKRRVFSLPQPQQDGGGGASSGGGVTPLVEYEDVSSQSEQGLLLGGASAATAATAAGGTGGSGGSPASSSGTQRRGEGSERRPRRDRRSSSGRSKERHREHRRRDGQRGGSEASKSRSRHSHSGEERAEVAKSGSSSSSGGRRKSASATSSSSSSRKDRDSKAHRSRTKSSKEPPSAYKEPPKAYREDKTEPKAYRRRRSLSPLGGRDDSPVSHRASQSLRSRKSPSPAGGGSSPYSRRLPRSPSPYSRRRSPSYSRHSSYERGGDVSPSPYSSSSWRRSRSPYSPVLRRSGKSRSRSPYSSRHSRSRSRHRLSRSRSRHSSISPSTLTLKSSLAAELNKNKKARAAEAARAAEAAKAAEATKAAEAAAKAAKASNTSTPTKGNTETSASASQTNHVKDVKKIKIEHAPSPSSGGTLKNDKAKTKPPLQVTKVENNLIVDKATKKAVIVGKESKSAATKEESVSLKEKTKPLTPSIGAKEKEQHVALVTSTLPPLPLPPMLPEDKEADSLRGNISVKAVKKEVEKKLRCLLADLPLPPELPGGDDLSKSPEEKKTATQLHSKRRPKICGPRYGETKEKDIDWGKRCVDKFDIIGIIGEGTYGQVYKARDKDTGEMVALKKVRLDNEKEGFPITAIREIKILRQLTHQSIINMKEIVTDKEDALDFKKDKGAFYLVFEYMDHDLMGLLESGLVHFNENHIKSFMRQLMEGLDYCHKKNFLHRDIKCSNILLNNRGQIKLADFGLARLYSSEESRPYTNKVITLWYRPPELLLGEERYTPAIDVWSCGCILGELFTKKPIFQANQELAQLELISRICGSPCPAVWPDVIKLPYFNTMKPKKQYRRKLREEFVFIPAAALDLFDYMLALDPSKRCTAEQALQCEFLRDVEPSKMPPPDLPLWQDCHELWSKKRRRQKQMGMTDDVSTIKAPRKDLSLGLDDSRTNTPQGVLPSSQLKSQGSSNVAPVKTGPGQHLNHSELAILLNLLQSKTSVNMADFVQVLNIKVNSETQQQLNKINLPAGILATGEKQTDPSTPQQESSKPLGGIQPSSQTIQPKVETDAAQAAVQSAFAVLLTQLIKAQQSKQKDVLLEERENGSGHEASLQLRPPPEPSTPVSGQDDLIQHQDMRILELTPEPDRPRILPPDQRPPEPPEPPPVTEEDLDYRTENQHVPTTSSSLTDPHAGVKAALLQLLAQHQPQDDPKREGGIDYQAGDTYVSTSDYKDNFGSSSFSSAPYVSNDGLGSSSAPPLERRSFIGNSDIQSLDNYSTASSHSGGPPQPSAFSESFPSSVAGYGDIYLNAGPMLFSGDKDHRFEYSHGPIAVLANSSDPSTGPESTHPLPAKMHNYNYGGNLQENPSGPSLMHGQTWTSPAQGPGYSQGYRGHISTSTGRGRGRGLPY
Sequence of CDK13 (O75909 whole entry partner, species assumed): as the sequence (O75909 whole entry partner, species assumed) above

IC50 [1, 5] [nM] | IC50 [2] [nM] | IC50 [3, 6] [nM] | IC50 [4, 7] [nM] | SMILES | IC50 [1] [nM] | IC50 [3] [nM] | IC50 [4] [nM] | IC50 ([4]; read-out: CDK12 IC50, kinase reaction 120 minutes, 33P-gamma-ATP) [nM]
< 300 | ≤ 50 | < 100 | < 100 | Nc1ncc(-c2cc(NCc3nc4cc(F)c(F)cc4[nH]3)c3ncc(C(F)(F)F)n3n2)cn1 [Example 113, 6-(2-aminopyrimidin-5-yl)-N-((5,6-difluoro-1H-benzo[d]imidazol-2-yl)methyl)-3-(trifluoromethyl)imidazo[1,2-b]pyridazin-8-amine] |  |  |  | 
< 300 | ≤ 50 | 100 to 500 | 100 to 500 | CC1(O)CCN(c2cc(NCc3nc4cc(Cl)c(Cl)cc4[nH]3)c3ncc(C(F)(F)F)n3n2)CC1 [Example 53, 1-(8-(((5,6-dichloro-1H-benzo[d]imidazol-2-yl)methyl)amino)-3-(trifluoromethyl)imidazo[1,2-b]pyridazin-6-yl)-4-methylpiperidin-4-ol] |  |  |  | 
< 300 | ≤ 50 | < 100 | < 100 | C[C@@H]1CN(c2cc(NCc3nc4cc(F)c(F)cc4[nH]3)c3ncc(C(F)(F)F)n3n2)C[C@H](C)N1 [Example 112, N-((5,6-difluoro-1H-benzo[d]imidazol-2-yl)methyl)-6-((3S, 5R)-3,5-dimethylpiperazin-1-yl)-3-(trifluoromethyl)imidazo[1,2-b]pyridazin-8-amine] |  |  |  | 
< 300 | ≤ 50 | < 100 | < 100 | Fc1cc2nc(CNc3cc(N4CCNCC4)nn4c(C(F)(F)F)cnc34)[nH]c2cc1F [Example 109] |  |  |  | 
> 3000 | > 500 | > 500 | > 500 | Nc1ncc(-c2cc(NCc3nc4ccc(F)c(F)c4[nH]3)c3ncc(C#CC4CC4)n3n2)cn1 [Example 21, 6-(2-aminopyrimidin-5-yl)-3-(cyclopropylethynyl)-N-((6,7-difluoro-1H-benzo[d]imidazol-2-yl)methyl)imidazo[1,2-b]pyridazin-8-amine] |  |  |  | 
< 300 | ≤ 50 | < 100 | < 100 | N[C@H]1CCN(c2cc(NCc3nc4ccc(F)c(F)c4[nH]3)c3ncc(C(F)(F)F)n3n2)C1 [Example 38] |  |  |  | 
< 300 | ≤ 50 | < 100 | < 100 | Cc1cc2[nH]c(CNc3cc(N4CCOCC4)nn4c(C(F)(F)F)cnc34)nc2cc1Cl [Example 79, N-((5-chloro-6-methyl-1H-benzo[d]imidazol-2-yl)methyl)-6-morpholino-3-(trifluoromethyl)imidazo[1,2-b]pyridazin-8-amine] |  |  |  | 
> 3000 | > 500 | < 100 | 100 to 500 | O=C(O)C1CN(c2cc(NCc3nc4cc(Cl)c(Cl)cc4[nH]3)c3ncc(C(F)(F)F)n3n2)C1 [Example 64, 1-(8-(((5,6-dichloro-1H-benzo[d]imidazol-2-yl)methyl)amino)-3-(trifluoromethyl)imidazo[1,2-b]pyridazin-6-yl)azetidine-3-carboxylic acid] |  |  |  | 
< 300 | 50 to 500 | < 100 | < 100 | NC(=O)C1CN(c2cc(NCc3nc4cc(Cl)c(Cl)cc4[nH]3)c3ncc(C(F)(F)F)n3n2)C1 [Example 65, 1-(8-(((5,6-dichloro-1H-benzo[d]imidazol-2-yl)methyl)amino)-3-(trifluoromethyl)imidazo[1,2-b]pyridazin-6-yl)azetidine-3-carboxamide] |  |  |  | 
300 to 3000 | 50 to 500 | 100 to 500 | 100 to 500 | FC(F)(F)c1cnc2c(NCc3nc4cc(Cl)c(Cl)cc4[nH]3)cc(N3CC4CCC3CO4)nn12 (stereo not drawn) [Example 43, 6-(2-oxa-5-azabicyclo[2.2.2]octan-5-yl)-N-((5,6-dichloro-1H-benzo[d]imidazol-2-yl)methyl)-3-(trifluoromethyl)imidazo[1,2-b]pyridazin-8-amine] |  |  |  | 
300 to 3000 | 50 to 500 |  | < 100 | FC(F)(F)c1cnc2c(NCc3cc4ncccc4[nH]3)cc(N3CCOCC3)nn12 [Example 87, N-((1H-pyrrolo[3,2-b]pyridin-2-yl)methyl)-6-morpholino-3-(trifluoromethyl)imidazo[1,2-b]pyridazin-8-amine] |  | < 100 |  | 
300 to 3000 | 50 to 500 | < 100 | < 100 | FC(F)(F)c1ccc2[nH]c(CNc3cc(N4CCOCC4)nn4c(C(F)(F)F)cnc34)nc2c1 [Example 78, 6-morpholino-3-(trifluoromethyl)-N-((5-(trifluoromethyl)-1H-benzo[d]imidazol-2-yl)methyl)imidazo[1,2-b]pyridazin-8-amine] |  |  |  | 
300 to 3000 | 50 to 500 |  |  | N#CC1CN(c2cc(NCc3nc4ccc(F)c(F)c4[nH]3)c3ncc(C(F)(F)F)n3n2)C1 [Example 54, 1-(8-(((6,7-difluoro-1H-benzo[d]imidazol-2-yl)methyl)amino)-3-(trifluoromethyl)imidazo[1,2-b]pyridazin-6-yl)azetidine-3-carbonitrile] |  |  |  | 

SMILES | IC50 [1, 5] [nM] | IC50 [2] [nM] | IC50 [3, 6] [nM] | IC50 [4, 7] [nM] | IC50 [1] [nM] | IC50 [3] [nM] | IC50 [4] [nM] | IC50 ([4]; read-out: CDK12 IC50, kinase reaction 120 minutes, 33P-gamma-ATP) [nM]
Fc1ccc2nc(CNc3cc(N4CCOCC4)nn4c(I)cnc34)[nH]c2c1F [Example 26, N-((6,7-difluoro-1H-benzo[d]imidazol-2-yl)methyl)-3-iodo-6-morpholinoimidazo[1.2-b]pyridazin-8-amine] |  | > 500 |  |  | > 3000 | > 500 | > 500 | 
FC(F)(F)c1cnc2c(NCc3nc4cc(Cl)c(Cl)cc4[nH]3)cc(N3C4CNCC3C4)nn12 [Example 99, 6-(3,6-diazabicyclo[3.1.1]heptan-6-yl)-N-((5,6-dichloro-1H-benzo[d]imidazol-2-yl)methyl)-3-(trifluoromethyl)imidazo[1,2-b]pyridazin-8-amine] | < 300 | ≤ 50 | 100 to 500 | 100 to 500 |  |  |  | 
CC1(O)CC2CCC(C1)N2c1cc(NCc2nc3cc(Cl)c(Cl)cc3[nH]2)c2ncc(C(F)(F)F)n2n1 (stereo not drawn) [Example 34] | < 300 | 50 to 500 | 100 to 500 |  |  |  | > 500 | 
FC(F)(F)c1cnc2c(NCc3nc4cc(Cl)c(Cl)cc4[nH]3)cc(N3CC4CC(C4)C3)nn12 [Example 31, 6-(3-azabicyclo[3.1.1]heptan-3-yl)-N-((5,6-dichloro-1H-benzo[d]imidazol-2-yl)methyl)-3-(trifluoromethyl)imidazo[1,2-b]pyridazin-8-amine] | 300 to 3000 | > 500 | 100 to 500 | > 500 |  |  |  | 
FC(F)(F)c1cnc2c(NCc3nc4cc(Cl)c(Cl)cc4[nH]3)cc(N3CC4CC(C3)O4)nn12 [Example 32] | < 300 | ≤ 50 | 100 to 500 |  |  |  |  | 100 to 500
Fc1ccc2nc(CNc3cc(N4CC5CCC(C4)O5)nn4c(C(F)(F)F)cnc34)[nH]c2c1F [Example 9] | < 300 | ≤ 50 | < 100 |  |  |  | < 100 | 
FC(F)(F)c1cnc2c(NCc3nc4cc(Cl)c(Cl)cc4[nH]3)cc(N3CC4CC(C3)N4)nn12 [Example 97, 6-(3,6-diazabicyclo[3.1.1]heptan-3-yl)-N-((5,6-dichloro-1H-benzo[d]imidazol-2-yl)methyl)-3-(trifluoromethyl)imidazo[1,2-b]pyridazin-8-amine] | < 300 | ≤ 50 | < 100 | < 100 |  |  |  | 
